Test results published in US6160004A, “C-10 carbon-substituted artemisinin-like trioxane compounds having antimalarial, antiproliferative and antitumor activities” (priority 1998, dated 2000).
Read-outs that look alike come from different tables or passages of the source.

How the values were obtained:
HCT-116 = assay: cells; format: cell-based
NCI-H460 = assay: cells; format: cell-based; conditions: Homo sapiens, NCI-H460, non-small cell lung cancer, 48 h
SR = assay: cells; format: cell-based; conditions: Homo sapiens, 48 h; for CC50: read-out: Log10 LC50 (converted); for GI50: read-out: Log10 GI50 (converted)
60 cell line panel = assay: NCI 60 cell line panel, whole panel; conditions: panel
EKVX = assay: NCI 60 cell line panel screening assay (SRB), EKVX; format: cell-based; conditions: Homo sapiens, non-small cell lung cancer, 48 h, read-out: Log10 GI50 (converted)
SNB-75 = assay: cells; format: cell-based; conditions: Homo sapiens; for GI50: read-out: Log10 GI50 (converted); for CC50: read-out: Log10 LC50 (converted)
NCI-H226 = assay: cells; format: cell-based; conditions: Homo sapiens
HT29 = assay: cells; format: cell-based; conditions: Homo sapiens; for GI50: read-out: Log10 GI50 (converted)
COLO 205 = assay: NCI 60 cell line panel screening assay (SRB), COLO 205; format: cell-based; conditions: Homo sapiens, read-out: Log10 GI50 (converted)
MOLT-4 = conditions: MOLT-4, FIG. 6
KM12 = assay: cells; format: cell-based; conditions: Homo sapiens; for GI50: read-out: Log10 GI50 (converted)
HOP-92 = assay: cells; format: cell-based; conditions: Homo sapiens
ACHN = assay: NCI 60 cell line panel screening assay (SRB), ACHN; format: cell-based; conditions: Homo sapiens, renal cancer, 48 h, read-out: Log10 GI50 (converted)
SK-MEL-28 = assay: cells; format: cell-based; conditions: Homo sapiens; for CC50: read-out: Log10 LC50 (converted); for IC (TGI): read-out: Log10 TGI
NCI-H322M = assay: cells; conditions: Homo sapiens, 48 h; for CC50: read-out: Log10 LC50 (converted)
CAKI-1 = assay: NCI 60 cell line panel screening assay (SRB), CAKI-1; format: cell-based; conditions: Homo sapiens, CAKI-1, renal cancer, 48 h
SK-MEL-2 = assay: cells; format: cell-based; conditions: Homo sapiens, SK-MEL-2, 48 h, read-out: Log10 LC50 (converted)
SF-295 = assay: cells; format: cell-based; conditions: Homo sapiens
SF-539 = assay: cells; format: cell-based; conditions: Homo sapiens, SF-539, 48 h, read-out: Log10 LC50 (converted)
MALME-3M = assay: cells; format: cell-based; conditions: Homo sapiens, MALME-3M, melanoma, 48 h
MCF7/ADR-RES = assay: cells; format: cell-based; conditions: Homo sapiens
MDA-MB231/ATCC = assay: cells; format: cell-based; conditions: Homo sapiens, MDA-MB-231, breast cancer, 48 h
SF-268 = assay: cells; format: cell-based; conditions: Homo sapiens; for CC50: read-out: Log10 LC50 (converted)
[1] = tested on: chloroquine-sensitive P. falciparum (NF54); assay: In vitro antimalarial activity ([3H]hypoxanthine incorporation); format: cell-based; conditions: Plasmodium falciparum; chloroquine-sensitive P. falciparum NF54, in vitro
OVCAR-4 = assay: cells; format: cell-based; conditions: Homo sapiens
UO-31 = assay: NCI 60 cell line panel screening assay (SRB), UO-31; format: cell-based; conditions: Homo sapiens, UO-31, renal cancer, 48 h
HL-60(TB) = assay: cells; format: cell-based; conditions: Homo sapiens, HL-60, 48 h
A549/ATCC = assay: NCI 60 cell line panel screening assay (SRB), A549/ATCC; format: cell-based; conditions: Homo sapiens, non-small cell lung cancer, 48 h, read-out: Log10 GI50 (converted)
NCI-H522 = assay: cells; format: cell-based; conditions: Homo sapiens, NCI-H522, 48 h
LOX IMVI = assay: cells; format: cell-based; conditions: Homo sapiens, 48 h, read-out: Log10 GI50 (converted)
MDA-MB435 = assay: NCI 60 cell line panel screening assay (SRB), MDA-MB435; format: cell-based; conditions: Homo sapiens, MDA-MB-435, 48 h
[2] = read-out: Log10 GI50 (converted)
[3] = read-out: Log10 TGI (converted)
[4] = read-out: Log10 LC50 (converted)

Q: Which GI50 (HCT-116; Homo sapiens, HCT-116, 48 h; read-out: Log10 GI50 (converted)) does the source give for C[C@@H]1CC[C@H]2[C@@H](C)C(=O)O[C@@H]3O[C@@]4(C)CC[C@@H]1[C@]32OO4 [Artemisinin] here?
A: 100 µM

Q: And the GI50 (NCI-H460; [2])?
A: > 100 µM

Q: What about the IC (TGI) (NCI-H460; [3]) of the same compound?
A: > 100 µM

Q: And the CC50 (SR)?
A: > 100 µM

Q: What about the GI50 (SR; leukemia) of the same compound?
A: > 100 µM

Q: And the “Delta of Log10 LC50” value (60 cell line panel)?
A: -4.00

Q: What about the “Range of Log10 TGI” value (60 cell line panel) of the same compound?
A: 0.06

Q: What about the GI50 (EKVX) of the same compound?
A: > 100 µM

Q: What about the GI50 (SNB-75; SNB-75, CNS cancer, 48 h) of the same compound?
A: > 100 µM

Q: And the GI50 (NCI-H226; NCI-H226, non-small cell lung cancer, 48 h, read-out: Log10 GI50 (converted))?
A: > 100 µM

Q: And the GI50 (HT29; HT-29, HT29, colon cancer, 48 h)?
A: > 100 µM

Q: And the GI50 (COLO 205; COLO 205, colon cancer, 48 h)?
A: > 100 µM

Q: And the “concentration for cytostasis (PG 0)” value (MOLT-4)?
A: greater than 10^-4 M

Q: And the GI50 (KM12; KM12, colon cancer, 48 h)?
A: > 100 µM

Q: What about the GI50 (HOP-92; HOP-92, non-small cell lung cancer, 48 h, read-out: Log10 GI50 (converted)) of the same compound?
A: > 100 µM

Q: What about the GI50 (ACHN) of the same compound?
A: > 100 µM

Q: What about the GI50 (SK-MEL-28; SK-MEL-28, melanoma, 48 h, read-out: Log10 GI50 (converted)) of the same compound?
A: > 100 µM

Q: Which IC (TGI) (HCT-116; Homo sapiens, HCT-116, 48 h; read-out: Log10 TGI (converted)) does the source give for C[C@H]1[C@@H](F)O[C@@H]2O[C@@]3(C)CC[C@H]4[C@H](C)CC[C@@H]1[C@@]24OO3 [Compound VI, 10β-Fluoro-10-deoxoartemisinin] here?
A: > 100 µM

Q: And the CC50 (NCI-H322M)?
A: > 100 µM

Q: What about the CC50 (SR) of the same compound?
A: > 100 µM

Q: What about the IC (TGI) (CAKI-1; [3]) of the same compound?
A: 21.4 µM

Q: What about the “Delta of Log10 TGI” value (60 cell line panel) of the same compound?
A: 1.18

Q: And the “Range of Log10 TGI” value (60 cell line panel)?
A: 1.56

Q: What about the CC50 (SK-MEL-2) of the same compound?
A: > 100 µM

Q: What about the CC50 (SF-295; SF-295, 48 h, read-out: Log10 LC50 (converted)) of the same compound?
A: > 100 µM

Q: What about the GI50 (SF-295; SF-295, CNS cancer, 48 h, read-out: Log10 GI50 (converted)) of the same compound?
A: 17 µM

Q: What about the IC (TGI) (SF-295; SF-295, CNS cancer, 48 h, read-out: Log10 TGI) of the same compound?
A: > 100 µM

Q: And the CC50 (SF-539)?
A: > 100 µM

Q: And the CC50 (SNB-75; SNB-75, 48 h)?
A: > 100 µM

Q: And the IC (TGI) (SNB-75; SNB-75, CNS cancer, 48 h, read-out: Log10 TGI)?
A: > 100 µM

Q: And the CC50 (NCI-H226; NCI-H226, 48 h, read-out: Log10 LC50 (converted))?
A: > 100 µM

Q: What about the IC (TGI) (NCI-H226; NCI-H226, non-small cell lung cancer, 48 h, read-out: Log10 TGI) of the same compound?
A: > 100 µM

Q: And the CC50 (HT29; HT-29, 48 h, read-out: Log10 LC50 (converted))?
A: > 100 µM

Q: What about the IC (TGI) (HT29; HT-29, printed H129, colon cancer, 48 h, read-out: Log10 TGI) of the same compound?
A: > 100 µM

Q: What about the CC50 (KM12; KM12, 48 h, read-out: Log10 LC50 (converted)) of the same compound?
A: > 100 µM

Q: What about the GI50 (KM12; KM12, colon cancer, 48 h) of the same compound?
A: 0.437 µM

Q: And the GI50 (MALME-3M; [2])?
A: 2.34 µM

Q: And the IC (TGI) (MALME-3M; read-out: Log10 TGI)?
A: > 100 µM

Q: What about the CC50 (HOP-92; HOP-92, 48 h, read-out: Log10 LC50 (converted)) of the same compound?
A: > 100 µM

Q: And the IC (TGI) (HOP-92; HOP-92, non-small cell lung cancer, 48 h, read-out: Log10 TGI (converted))?
A: 21.4 µM

Q: What about the CC50 (MCF7/ADR-RES; MCF7, 48 h, read-out: Log10 LC50 (converted)) of the same compound?
A: > 100 µM

Q: And the IC (TGI) (MCF7/ADR-RES; MCF7/ADR-RES, breast cancer, 48 h, read-out: Log10 TGI)?
A: > 100 µM

Q: And the CC50 (SK-MEL-28; SK-MEL-28, 48 h)?
A: > 100 µM

Q: What about the IC (TGI) (SK-MEL-28; SK-MEL-28, melanoma, 48 h) of the same compound?
A: > 100 µM

Q: And the GI50 (MDA-MB231/ATCC; [2])?
A: 13.2 µM

Q: And the CC50 (MDA-MB231/ATCC; [4])?
A: > 100 µM

Q: What about the CC50 (SF-268; SF-268, 48 h) of the same compound?
A: > 100 µM

Q: And the IC (TGI) (SF-268; SF-268, CNS cancer, 48 h, read-out: Log10 TGI)?
A: > 100 µM

Q: CC1CCC2C(C)C(CC(=O)c3ccc(C(=O)CC4OC5OC6(C)CCC7C(C)CCC(C4C)C57OO6)cc3)OC3OC4(C)CCC1C32OO4 (stereo not drawn) [Dimer 38] was tested. Which GI50 (HCT-116; Homo sapiens, HCT-116, 48 h, read-out: Log10 GI50 (converted)) did it give?
A: < 0.01 µM

Q: And the GI50 (NCI-H322M; [2])?
A: 3.8 µM

Q: What about the CC50 (NCI-H322M) of the same compound?
A: > 100 µM

Q: What about the IC (TGI) (NCI-H322M; read-out: Log10 TGI) of the same compound?
A: > 100 µM

Q: And the GI50 (SR)?
A: < 0.01 µM

Q: What about the CC50 (SR; leukemia) of the same compound?
A: > 100 µM

Q: What about the IC50 [1] of the same compound?
A: 0.0019 µM

Q: And the GI50 (CAKI-1; [2])?
A: 0.0112 µM

Q: What about the IC (TGI) (OVCAR-4; OVCAR-4, 48 h, read-out: Log10 TGI) of the same compound?
A: > 100 µM

Q: And the CC50 (OVCAR-4; OVCAR-4, ovarian cancer, 48 h, read-out: Log10 LC50 (converted))?
A: > 100 µM

Q: What about the GI50 (UO-31; [2]) of the same compound?
A: 0.024 µM

Q: And the CC50 (UO-31; [4])?
A: > 100 µM

Q: And the GI50 (HL-60(TB); [2])?
A: < 0.01 µM

Q: And the CC50 (HL-60(TB); [4])?
A: > 100 µM

Q: And the “Delta of Log10 TGI” value (60 cell line panel)?
A: 3.17

Q: What about the GI50 (SNB-75; SNB-75, CNS cancer, 48 h) of the same compound?
A: 0.117 µM

Q: And the CC50 (SNB-75; SNB-75, CNS cancer, 48 h)?
A: > 100 µM

Q: And the GI50 (A549/ATCC)?
A: < 0.01 µM

Q: What about the GI50 (HT29; HT-29, 48 h) of the same compound?
A: < 0.01 µM

Q: What about the GI50 (COLO 205; COLO 205, 48 h) of the same compound?
A: < 0.01 µM

Q: And the “concentration for cytostasis (PG 0)” value (MOLT-4)?
A: approximately 10^-4 M

Q: And the GI50 (KM12; KM12, 48 h)?
A: < 0.01 µM

Q: And the GI50 (NCI-H522; [2])?
A: < 0.01 µM

Q: What about the CC50 (NCI-H522; [4]) of the same compound?
A: > 100 µM

Q: What about the GI50 (LOX IMVI) of the same compound?
A: < 0.01 µM

Q: What about the GI50 (MDA-MB435; [2]) of the same compound?
A: < 0.01 µM

Q: What about the CC50 (MDA-MB435; [4]) of the same compound?
A: > 100 µM

Q: What about the CC50 (SK-MEL-28; SK-MEL-28, melanoma, 48 h) of the same compound?
A: > 100 µM

Q: And the IC (TGI) (SK-MEL-28; SK-MEL-28, melanoma, 48 h)?
A: > 100 µM

Q: What about the CC50 (SF-268; SF-268, CNS cancer, 48 h) of the same compound?
A: > 100 µM
